One test relates to Rattus norvegicus. Put plainly: Compound was tested for in vivo antitumor effect on rats with mammary tumors induced by nitrosomethylurea at a dose of 2.5 ug/kg/day. The format is functional.
The test system of test [1] is U-937. The test is described as follows: Concentration required for the compound to induce U 937 cells along the monocyte-macrophage pathway. The format is functional, cell-based. The following applies: Homo sapiens.
Test [2] deals with U-937. The test is described as follows: Compound was tested in vitro to inhibit proliferation of U 937 human histiolytic lymphoma cells. Type of test: functional, cell-based.

The molecule `C=C1/C(=C\C=C2/CCC[C@]3(C)[C@@H]([C@H](C)/C=C/C=C/C(O)(CC)CC)CC[C@@H]23)C[C@@H](O)C[C@@H]1O` [SEOCALCITOL] displayed an inhibition in vivo at 0.0025 mg/kg/day with Rattus norvegicus of 80%. Further, the Concentration in the test with U-937 [1] turned out to be 0.03 nM. In the test with U-937 [2], this molecule had a half-inhibitory concentration (IC50) of 250 pM.

`C=C1/C(=C\C=C2/CCC[C@]3(C)[C@@H]([C@H](C)CCCC(C)(C)O)CC[C@@H]23)C[C@@H](O)C[C@@H]1O` showed a Concentration in the test on U-937 [1] of 2 nM.

The values above are taken from ChEMBL document CHEMBL1126546, “Vitamin D analogues: new regulators of cancer cell growth and differentiation” (Bioorg Med Chem Lett, 1993).
